Data reported in the supplement of paper PMC10307832.

Tests used:
Experiment in all cases: relative viability (nuclei count vs DMSO), 5 days (fraction); higher = more cells survive
JQ1 = compound: Cc1sc2c(c1C)C(c1ccc(Cl)cc1)=N[C@@H](CC(=O)OC(C)(C)C)c1nnc(C)n1-2 [JQ1]
In short: (§1)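 Viability here means nuclei in treated wells divided by nuclei in vehicle wells, reported as the median across plates. Only plates with control CV below 25% and at least one doubling passed. Lung cancer cell lines in 1536-well plates were exposed to five √10-spaced library-drug doses for 5 days and counted from 4× Hoechst images in MetaXpress.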

Docetaxel = compound: CC(=O)O[C@@]12CO[C@@H]1C[C@H](O)[C@@]1(C)C(=O)[C@H](O)C3=C(C)[C@@H](OC(=O)[C@H](O)[C@@H](NC(=O)OC(C)(C)C)c4ccccc4)C[C@@](O)([C@@H](OC(=O)c4ccccc4)[C@H]21)C3(C)C [Docetaxel]
In short: as §1

Cytarabine = compound: Nc1ccn([C@@H]2O[C@H](CO)[C@@H](O)[C@@H]2O)c(=O)n1 [Cytarabine]
In short: as §1

CPI-613 = compound: O=C(O)CCCCC(CCSCc1ccccc1)SCc1ccccc1 [CPI-613]
In short: as §1

[1] = compound: Cc1cnc(-c2cnc(NCCNc3ccc(C#N)cn3)nc2-c2ccc(Cl)cc2Cl)[nH]1
In short: as §1

Pimozide = compound: O=c1[nH]c2ccccc2n1C1CCN(CCCC(c2ccc(F)cc2)c2ccc(F)cc2)CC1 [Pimozide]
In short: as §1

Tivozanib = compound: COc1cc2nccc(Oc3ccc(NC(=O)Nc4cc(C)on4)c(Cl)c3)c2cc1OC [Tivozanib]
In short: as §1

| Cell Line | relative viability (JQ1; 0.04 µM) | relative viability (JQ1; 0.1265 µM) | relative viability (JQ1; 0.4 µM) | relative viability (JQ1; 1.265 µM) | relative viability (JQ1; 4 µM) | relative viability (Docetaxel; 0.0002 µM) | relative viability (Docetaxel; 0.000632 µM) | relative viability (Docetaxel; 0.002 µM) | relative viability (Docetaxel; 0.006325 µM) | relative viability (Docetaxel; 0.02 µM) | relative viability (Cytarabine; 0.005 µM) | relative viability (Cytarabine; 0.01581 µM) | relative viability (Cytarabine; 0.05 µM) | relative viability (Cytarabine; 0.1581 µM) | relative viability (Cytarabine; 0.5 µM) | relative viability (CPI-613; 5 µM) | relative viability (CPI-613; 15.81 µM) | relative viability (CPI-613; 50 µM) | relative viability (CPI-613; 158.11 µM) | relative viability (CPI-613; 500 µM) | relative viability ([1]; 0.08 µM) | relative viability ([1]; 0.253 µM) | relative viability ([1]; 0.8 µM) | relative viability ([1]; 2.53 µM) | relative viability (Pimozide; 0.08 µM) | relative viability (Pimozide; 0.253 µM) | relative viability (Pimozide; 0.8 µM) | relative viability (Pimozide; 2.53 µM) | relative viability (Pimozide; 8 µM) | relative viability (Tivozanib; 0.005 µM) | relative viability (Tivozanib; 0.01581 µM) | relative viability (Tivozanib; 0.05 µM) | relative viability (Tivozanib; 0.1581 µM) | relative viability (Tivozanib; 0.5 µM) |
| --- | --- | --- | --- | --- | --- | --- | --- | --- | --- | --- | --- | --- | --- | --- | --- | --- | --- | --- | --- | --- | --- | --- | --- | --- | --- | --- | --- | --- | --- | --- | --- | --- | --- | --- |
| NCI-H838 | 0.961 | 0.59 | 0.792 | 0.436 | 0.343 | 0.937 | 0.867 | 0.393 | 0.197 | 0.175 | 0.97 | 0.964 | 0.743 | 0.423 | 0.293 | 0.948 | 0.864 | 0.883 | 0.649 | 0.0946 | 0.999 | 0.93 | 1.05 | 1.16 | 0.953 | 0.998 | 0.93 | 0.927 | 0.959 | 0.957 | 0.969 | 1.01 | 0.736 | 0.979 |
| NCI-H1299 | 0.974 | 0.851 | 0.909 | 0.379 | 0.308 | 0.998 | 0.975 | 0.868 | 0.502 | 0.37 | 1.01 | 1.04 | 1.01 | 1.06 | 1.02 | 1 | 0.984 | 1 | 0.992 | 0.973 | 0.968 | 1.01 | 1 | 0.969 | 1.02 | 0.951 | 0.977 | 0.995 | 0.988 | 1.01 | 1.03 | 1.03 | 1.02 | 0.952 |
| NCI-H1355 | 0.963 | 0.951 | 0.917 | 0.629 | 0.535 | 0.982 | 0.91 | 0.517 | 0.272 | 0.227 | 0.89 | 0.922 | 0.758 | 0.489 | 0.302 | 0.963 | 0.95 | 0.949 | 0.735 | 0.0943 | 0.995 | 0.874 | 0.939 | 0.907 | 0.968 | 0.964 | 0.954 | 0.956 | 0.907 | 0.941 | 0.938 | 1.05 | 0.702 | 0.897 |
| NCI-H1395 | 0.849 | 0.734 | 0.702 | 0.516 | 0.547 | 0.933 | 0.861 | 0.676 | 0.39 | 0.268 | 0.826 | 0.775 | 0.567 | 0.447 | 0.354 | 0.993 | 0.806 | 0.897 | 0.84 | 0.8 | 1.08 | 0.84 | 0.818 | 0.837 | 0.918 | 0.84 | 0.822 | 0.878 | 0.918 | 0.738 | 1.04 | 1 | 0.736 | 0.677 |
| NCI-H1437 | 0.92 | 0.792 | 0.762 | 0.484 | 0.415 | 0.914 | 0.765 | 0.457 | 0.281 | 0.158 | 0.79 | 0.64 | 0.494 | 0.243 | 0.206 | 0.96 | 0.898 | 0.948 | 0.345 | 0.0955 | 1.02 | 0.928 | 0.98 | 1 | 0.991 | 0.969 | 0.959 | 0.904 | 0.723 | 0.968 | 0.971 | 0.988 | 0.982 | 0.88 |
